Values joined by “and” are separate entries in the source; they are usually repeats but may differ in a detail not shown here. Equal values may be shown once.

For `CC1(C)CCC(C)(C)c2cc(CCc3nccs3)c(/C=C/c3ccc(C(=O)O)cc3)cc21` [Compound 40, 4-{(E)-2-[5,5,8,8-tetramethyl-3-(2-thiazol-2-yl-ethyl)-5,6,7,8-tetrahydro-naphthalen-2-yl)vinyl]benzoic acid], the melting point lay in the range of 215.8 to 217.5 °C. Compound `CC1(C)CC(=O)C(C)(C)c2cc(Cn3cccn3)c(/C=C/c3ccc(C(=O)O)cc3)cc21` [Compound 133, 4-[(E)-2-(5,5,8,8-tetramethyl-3-pyrazol-1-ylmethyl-6-oxo-5,6,7,8-tetrahydro-naphthalen-2-yl)vinyl]-benzoic acid] gave a melting point of 233 to 233.5 °C. Take `CC1(C)CCC(C)(C)c2cc(CCCO)c(/C=C/c3ccc(C(=O)O)cc3)cc21` [Compound 12, 4-{(E)-2-[3-(3-hydroxypropyl)-5,5,8,8-tetramethyl-5,6,7,8-tetrahydro-naphthalen-2-yl]vinyl}benzoic acid]: the melting point was 212.8 to 213.2 °C. Take `Cn1cnnc1SCc1cc2c(cc1/C=C/c1ccc(C(=O)O)cc1)C(C)(C)CCC2(C)C` [Compound 22]: the melting point was in the range of 251.6 to 252.6 °C. The compound `CC1(C)CCC(C)(C)c2cc(Cc3cccs3)c(/C=C/c3ccc(C(=O)O)cc3)cc21` [Compound 44, 4-[(E)-2-(5,5,8,8-tetramethyl-3-thiophen-2ylmethyl-5,6,7,8-tetrahydro-naphthalen-2-yl)vinyl]benzoic acid] yielded a melting point of 229.1 to 229.6 °C. Compound `Cc1ccc(Cc2cc3c(cc2/C=C/c2ccc(C(=O)O)cc2)C(C)(C)CCC3(C)C)cc1` [Compound 42, 4-{(E)-2-[5,5,8,8-tetramethyl-3-(4-methylbenzyl)-5,6,7,8-tetrahydro-naphthalen-2-yl]vinyl}benzoic acid] gave a melting point of 216.3 to 217.3 °C.

In the case of `CC1(C)CCC(C)(C)c2cc(Cn3cccn3)c(/C=C/c3ccc(C(=O)O)s3)cc21` [Compound 45, 5-[(E)-2-(5,5,8,8-tetramethyl-3-pyrazol-1-ylmethyl-5,6,7,8-tetrahydro-naphthalen-2-yl)vinyl]-thiophene-2-carboxylic acid], the melting point fell in the range of 168 to 174 °C.

With `CC1(C)CCC(C)(C)c2cc(CSC3CCCC3)c(/C=C/c3ccc(C(=O)O)cc3)cc21` [Compound 4], the melting point was 209.4 to 211.3 °C. In the case of `Cc1nnc(SCCCc2cc3c(cc2/C=C/c2ccc(C(=O)O)cc2)C(C)(C)CCC3(C)C)s1` [Compound 28, 4-((E)-2-{5,5,8,8-Tetramethyl-3-[3-(5-methyl-[1,3,4]thiadiazol-2-ylsulfanyl)-propyl]-5,6,7,8-tetrahydro-naphthalen-2-yl}vinyl)benzoic acid], the melting point lay within 144 to 145.3 °C.

On to `CCOCCCc1cc2c(cc1/C=C/c1ccc(C(=O)O)cc1)C(C)(C)CCC2(C)C` [Compound 10, 4-{(E)-2-[3-(3-ethoxypropyl)-5,8,8-tetramethyl-5,6,7,8-tetrahydro-naphthalen-2-yl]vinyl}benzoic acid], for which the melting point lay in the range of 169.4 to 173.3 °C. Regarding `CC1(C)CC(O)C(C)(C)c2cc(/C=C/c3ccc(C(=O)O)cc3)c(Cn3cccn3)cc21` (centres unmarked) [Compound 137, (E)-4-[2-(3-(pyrazole-1-ylmethyl)-7-hydroxy-5,5,8,8-tetramethyl-5,6,7,8-tetrahydronaphthalene-2-yl)vinyl]benzoic acid], the melting point fell in the range of 247.6 to 248.4 °C. For the compound `CC1(C)CCC(C)(C)c2cc(-c3ccsc3)c(/C=C/c3ccc(C(=O)O)cc3)cc21`, the melting point lay in the range of 244.5 to 245.8 °C. The value for `CC1(C)CCC(C)(C)c2cc(Sc3ncccn3)c(/C=C/c3ccc(C(=O)O)cc3)cc21` [Compound 155, 4-{(E)-2-[5,5,8,8-Tetramethyl-3-(mercaptopyrmidin-2-yl)-5,6,7,8-tetrahydro-naphthalen-2-yl)vinyl]benzoic acid] was 283 to 283.5 °C; that for `CC1(C)CCC(C)(C)c2cc(-c3cccs3)c(/C=C/c3ccc(C(=O)O)cc3)cc21` was 242.5 to 243.6 °C. `CC1(C)CCC(C)(C)c2cc(Cc3ccc(F)cc3F)c(/C=C/c3ccc(C(=O)O)cc3)cc21` [Compound 43, 4-{(E)-2-[5,5,8,8-tetramethyl-3-(2,4-difluorobenzyl)-5,6,7,8-tetrahydro-naphthalen-2-yl]vinyl}benzoic acid] registered a melting point of 204.3 to 205.7 °C. In the case of `COCCOCc1cc2c(cc1/C=C/c1ccc(C(=O)O)cc1)C(C)(C)CCC2(C)C` [Compound 5], the melting point lay in the range of 55.9 to 58.2 °C. As for `CC1(C)CCC(C)(C)c2cc(CCn3cccn3)c(/C=C/c3ccc(C(=O)O)cc3)cc21` [Compound 29, 4-{(E)-2-[5,5,8,8-tetramethyl-3-(2-pyrazol-1-ylethyl)-5,6,7,8-tetrahydro-naphthalen-2-yl]vinyl}benzoic acid], the melting point lay in the range of 235.3 to 235.9 °C. In the case of `CC1(C)CCC(C)(C)c2cc(Cn3cccn3)c(/C=C/c3ccc(C(N)=O)cc3)cc21` [Compound 165, 4-[(E)-2-(5,5,8,8-tetramethyl-3-pyrzol-1-ylmethyl-5,6,7,8-tetrahydro-naphthalen-2-yl)vinyl]benzamide], the melting point is 248 to 249 °C. For `CC1(C)CC(=O)C(C)(C)c2cc(/C=C/c3ccc(C(=O)O)cc3)c(Cn3cccn3)cc21` [Compound 144, (E)-4-[2-(3-(pyrazole-1-ylmethyl)-7-oxo-5,5,8,8-tetramethyl-5,6,7,8-tetrahydronaphthalene-2-yl)vinyl]benzoic acid] the value was 264.8 to 265.9 °C; for `Cc1nnc(SCc2cc3c(cc2/C=C/c2ccc(C(=O)O)cc2)C(C)(C)CCC3(C)C)s1` [Compound 23], 218.1 to 218.5 °C; for `CC1(C)CCC(C)(C)c2cc(CCc3ncccn3)c(/C=C/c3ccc(C(=O)O)cc3)cc21` [Compound 41], 228 to 228.9 °C. The compound `CC1(C)CC(O)C(C)(C)c2cc(Cn3cccn3)c(/C=C/c3ccc(C(=O)O)cc3)cc21` (centres unmarked) [Compound 55, 4-[(E)-2-(5,5,8,8-tetramethyl-3pyrazol-1-ylmethyl-6-hydroxy-5,6,7,8-tetrahydro-naphthalen-2-yl)vinyl]benzoic acid] showed a melting point of 241.6 to 242 °C.

Compound `CC(C)SCc1cc2c(cc1/C=C/c1ccc(C(=O)O)cc1)C(C)(C)CCC2(C)C` [Compound 13] returned a melting point of 208.6 to 210.8 °C. Regarding `CC1(C)CCC(C)(C)c2cc(CCCn3cccn3)c(/C=C/c3ccc(C(=O)O)cc3)cc21` [Compound 30, 4-{(E)-2-[5,5,8,8-tetramethyl-3-(3-pyrazol-1-ylpropyl)-5,6,7,8-tetrahydro-naphthalen-2-yl]vinyl}benzoic acid], the melting point was in the range of 181.5 to 182.5 °C. For `CC1(C)c2cc(/C=C/c3ccc(C(=O)O)cc3)c(Cn3cccn3)cc2C(C)(C)[C@@H](O)[C@H]1O` (stereo in doubt) [Compound 148, 4-[(E)-2-(5,5,8,8-tetramethyl-3-pyrazol-1-ylmethyl-6,7-cis-dihydroxy-5,6,7,8-tetrahydro-naphthalen-2-yl)vinyl]-benzoic acid] the value was 238.3 to 241.5 °C and 238.5 to 241.5 °C; for `CC1(C)CCC(C)(C)c2cc(Cn3cccn3)c(/C=C/c3ccc(C(=O)N4CCCCC4)cc3)cc21` [Compound 166, 4-[(E)-2-(5,5,8,8-tetramethyl-3-pyrzol-1-ylmethyl-5,6,7,8-tetrahydro-naphthalen-2-yl)vinyl]benzoic acid piperidine amide], 171.6 to 172.5 °C. In turn, `CC1(C)CCC(C)(C)c2cc(Cn3cccn3)c(/C=C/c3ccc(C(=O)O)c(F)c3)cc21` [Compound 47, 2-Fluoro-4-[(E)-2-[5,5,8,8-tetramethyl-3-pyrazol-1-ylmethyl-5,6,7,8-tetrahydronaphthalen-2-yl)vinyl]benzoic acid] registered a melting point of 177 to 179 °C.

`Cc1nnc(SCCc2cc3c(cc2/C=C/c2ccc(C(=O)O)cc2)C(C)(C)CCC3(C)C)s1` [Compound 27, 4-((E)-2-{5,5,8,8-tetramethyl-3-[3-(5-methyl-[1,3,4]thiadizol-2ylsulfanyl)-ethyl]-5,6,7,8-tetrahydro-naphthalen-2-yl}vinyl)benzoic acid] gave a melting point of 244.7 to 245.2 °C. As for `CC1(C)CCC(C)(C)c2cc(CSCC(O)CO)c(/C=C/c3ccc(C(=O)O)cc3)cc21` (centres unmarked) [Compound 9], the melting point was 174.8 to 175.9 °C.

As usually defined, the melting point is the temperature, or range, at which the solid turns liquid.
